Results reported in patent US8273754B2, “Substituted 1H-pyrazolo[3,4-D]pyrimidine-6-amine compounds” (ArQule, Inc., priority 2008, dated 2012).
Read-outs that look alike come from different tables or passages of the source.

System: cancer cells
Experiment: MTS cell growth inhibition assay (72 hours)
Format: cell-based
Outline: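 Cells in DMEM with 1% FBS, seeded 18 h, then compound-treated 72 h at 37 °C. Viability by MTS/PMS for 4 h, formazan absorbance at 492 nm; IC50 taken as concentration giving 50% absorbance drop, activity banded by percent inhibition.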

[1] = Homo sapiens, DLD-1, 72 h, DLD-1 cells, read-out: DLD-1 MTS 72 hr at 10 μM
[2] = Homo sapiens, KATO III, 72 h, KATO III cells, read-out: KATO III MTS 72 hr at 10 μM
[3] = Homo sapiens, MDA-MB-231, 72 h, MDA-MB-231 cells, read-out: MDA-MB-231 MTS 72 hr at 10 μM
[4] = Homo sapiens, NCI-H1299, 72 h, NCI-H1299 cells, read-out: NCI-H1299 MTS 72 hr at 10 μM
[5] = PaCa-2, 72 h, PACA-2 cells, read-out: PACA-2 MTS 72 hr at 10 μM

## COc1ccc(OC)c(S(=O)(=O)N2CCC(Nc3nc(N)nc4[nH]ncc34)Cc3ccccc32)c1 (stereo not drawn) [Compound 176, N4-{1-[(2,5-dimethoxyphenyl)sulfonyl]-2,3,4,5-tetrahydro-1H-1-benzazepin-4-yl}-1H-pyrazolo[3,4-d]pyrimidine-4,6-diamine]
[1]
  inhibition at 10 µM: < 50%
[2]
  inhibition at 10 µM: < 50%
[3]
  inhibition at 10 µM: < 50%
[4]
  inhibition at 10 µM: < 50%
[5]
  inhibition at 10 µM: < 50%

## Nc1nc(NC2Cc3ccccc3N(C(=O)COc3ccccc3)C2)c2cn[nH]c2n1 (stereo not drawn) [Compound 85, 1-(3-(6-amino-1H-pyrazolo[3,4-d]pyrimidin-4-ylamino)-3,4-dihydroquinolin-1(2H)-yl)-2-phenoxyethanone]
[1]
  inhibition at 10 µM: < 50%
[2]
  inhibition at 10 µM: < 50%
[3]
  inhibition at 10 µM: < 50%
[4]
  inhibition at 10 µM: < 50%
[5]
  inhibition at 10 µM: < 50%

## Cn1cnc(S(=O)(=O)N2CC(Nc3nc(N)nc4[nH]ncc34)Cc3ccccc32)c1 (stereo not drawn) [Compound 38, N4-(1-(1-methyl-1H-imidazol-4-ylsulfonyl)-1,2,3,4-tetrahydroquinolin-3-yl)-1H-pyrazolo[3,4-d]pyrimidine-4,6-diamine]
[1]
  inhibition at 10 µM: < 50%
[2]
  inhibition at 10 µM: < 50%
[3]
  inhibition at 10 µM: < 50%
[4]
  inhibition at 10 µM: < 50%
[5]
  inhibition at 10 µM: < 50%

## Nc1nc(NC2Cc3ccccc3N(S(=O)(=O)c3cc(C(F)(F)F)ccc3Cl)C2)c2cn[nH]c2n1 (stereo not drawn) [Compound 66, N4-(1-(2-chloro-5-(trifluoromethyl)phenylsulfonyl)-1,2,3,4-tetrahydroquinolin-3-yl)-1H-pyrazolo[3,4-d]pyrimidine-4,6-diamine]
[1]
  inhibition at 10 µM: < 50%
[2]
  inhibition at 10 µM: < 50%
[3]
  inhibition at 10 µM: < 50%
[4]
  inhibition at 10 µM: < 50%
[5]
  inhibition at 10 µM: < 50%

## COc1ccc(CCNC(=O)N2CC(Nc3nc(N)nc4[nH]ncc34)Cc3ccccc32)cc1 (stereo not drawn) [Compound 116, 3-(6-amino-1H-pyrazolo[3,4-d]pyrimidin-4-ylamino)-N-(4-methoxyphenethyl)-3,4-dihydroquinoline-1(2H)-carboxamide]
[1]
  inhibition at 10 µM: < 50%
[2]
  inhibition at 10 µM: < 50%
[3]
  inhibition at 10 µM: < 50%
[4]
  inhibition at 10 µM: < 50%
[5]
  inhibition at 10 µM: < 50%

## COc1ccc(F)c(CN2CC(Nc3nc(N)nc4[nH]ncc34)Cc3ccccc32)c1 (stereo not drawn) [Compound 142, N4-[1-(2-fluoro-5-methoxybenzyl)-1,2,3,4-tetrahydroquinolin-3-yl]-1H-pyrazolo[3,4-d]pyrimidine-4,6-diamine]
[1]
  inhibition at 10 µM: < 50%
[2]
  inhibition at 10 µM: 50 to 79%
[3]
  inhibition at 10 µM: < 50%
[4]
  inhibition at 10 µM: < 50%
[5]
  inhibition at 10 µM: > 79%

## Nc1nc(NC2Cc3ccccc3N(S(=O)(=O)c3ccc(Cl)cc3)C2)c2cn[nH]c2n1 (stereo not drawn) [Compound 35, N4-(1-(4-chlorophenylsulfonyl)-1,2,3,4-tetrahydroquinolin-3-yl)-1H-pyrazolo[3,4-d]pyrimidine-4,6-diamine]
[1]
  inhibition at 10 µM: < 50%
[2]
  inhibition at 10 µM: < 50%
[3]
  inhibition at 10 µM: < 50%
[4]
  inhibition at 10 µM: < 50%
[5]
  inhibition at 10 µM: < 50%

## Nc1nc(NC2CCN(S(=O)(=O)c3cccc4c(Cl)cccc34)c3ccccc3C2)c2cn[nH]c2n1 (stereo not drawn) [Compound 187, N4-{1-[(5-chloro-1-naphthyl)sulfonyl]-2,3,4,5-tetrahydro-1H-1-benzazepin-4-yl}-1H-pyrazolo[3,4-d]pyrimidine-4,6-diamine]
[1]
  inhibition at 10 µM: 50 to 79%
[2]
  inhibition at 10 µM: 50 to 79%
[3]
  inhibition at 10 µM: < 50%
[4]
  inhibition at 10 µM: < 50%
[5]
  inhibition at 10 µM: 50 to 79%

## COc1ccc(CN2CC(Nc3nc(N)nc4[nH]ncc34)Cc3ccccc32)cc1OCc1ccccc1 (stereo not drawn) [Compound 160, N4-{1-[3-(benzyloxy)-4-methoxybenzyl]-1,2,3,4-tetrahydroquinolin-3-yl}-1H-pyrazolo[3,4-d]pyrimidine-4,6-diamine]
[1]
  inhibition at 10 µM: > 79%
[2]
  inhibition at 10 µM: > 79%
[3]
  inhibition at 10 µM: < 50%
[4]
  inhibition at 10 µM: < 50%
[5]
  inhibition at 10 µM: > 79%
